Reference: US20230146795A1, “ENHANCEMENT OF ANTI-TUMOR ACTIVITY OF SHP2 INHIBITOR PYRIMIDINONE IN COMBINATION WITH NOVEL CANCER MEDICINES IN CANCERS” (TAIHO PHARMACEUTICAL CO., LTD., priority 2020, published 2023)
Several values for one entry are separate records, joined by “and”; a condition that tells them apart may be missing. Equal values may be shown once. Read-outs that look alike come from different tables or passages of the source.

Legend:
Type in all cases: cell-based
MKN45 = assay: Anti-proliferation assay (CellTiter-Glo 2.0), combination index, MKN45; conditions: for Description: combination effect
Procedure: (§1) Cell lines were obtained from ATCC or Health Science Research Resources Bank.
(§2) Each cell lines were collected by ordinary method, then suspended in indicated medium containing 10% fetal bovine serum in table 3. The number of cells seeded per well was set to 500 cells/20 μL. […] The concentration of each anti-cancer reagents set to 8 concentrations including 0 nM. After adding the medicine to the cells, the cells were further incubated at 37° C. for 3 days under 5% CO2. Cell survival rates were calculated by adding 20 μL of CellTiter-Glo(registered trademark) 2. 0 (Promega) solution to each well, incubating the cells at room temperature for 10 minutes, and then measuring the chemiluminescence intensity of each well using a plate reader (ARVO).
(§3) A combination index (CI) value at each combined concentration of the medicines was determined.

RT4 = assay: Anti-proliferation assay (CellTiter-Glo 2.0), combination index, RT4; conditions: for Description: combination effect
Procedure: as §1, §2, §3

NCI-H358 = assay: Anti-proliferation assay (CellTiter-Glo 2.0), combination index, NCI-H358
Procedure: as §1, §2, §3

[1] = Compound 1 41.2 nmol/L + 5-FU 3330 nmol/L, molar ratio 1:81
[2] = Compound 1 123 nmol/L + 5-FU 10000 nmol/L, molar ratio 1:81
[3] = Compound 1 1.52 + combination drug 1.37 nmol/L (1:0.9)
[4] = Compound 1 4.57 + combination drug 4.12 nmol/L (1:0.9)
[5] = Compound 1 13.7 + combination drug 12.3 nmol/L (1:0.9)
[6] = Compound 1 41.2 + combination drug 37.0 nmol/L (1:0.9)
[7] = Compound 1 123 + combination drug 111 nmol/L (1:0.9)
[8] = Compound 1 370 + combination drug 333 nmol/L (1:0.9)
[9] = Compound 1 1110 + combination drug 1000 nmol/L (1:0.9)
[10] = Compound 1 13.7 + combination drug 1.37 nmol/L (1:0.1)
[11] = Compound 1 41.2 + combination drug 4.12 nmol/L (1:0.1)
[12] = Compound 1 123 + combination drug 12.3 nmol/L (1:0.1)
[13] = Compound 1 41.2 + combination drug 3330 nmol/L (1:81)
[14] = Compound 1 123 + combination drug 10000 nmol/L (1:81)
[15] = Compound 1 4.57 nmol/L + Etoposide 123 nmol/L, molar ratio 1:27
[16] = Compound 1 13.7 nmol/L + Etoposide 370 nmol/L, molar ratio 1:27
[17] = Compound 1 41.2 nmol/L + Etoposide 1110 nmol/L, molar ratio 1:27
[18] = Compound 1 13.7 + combination drug 111 nmol/L (1:8.1)
[19] = Compound 1 41.2 + combination drug 333 nmol/L (1:8.1)
[20] = Compound 1 123 + combination drug 1000 nmol/L (1:8.1)
[21] = Compound 1:combination drug molar ratio 1:8.1
[22] = Compound 1 12.3 nmol/L + Gemcitabine 1.23 nmol/L, molar ratio 1:0.1
[23] = Compound 1 37.0 nmol/L + Gemcitabine 3.70 nmol/L, molar ratio 1:0.1
[24] = Compound 1 123 + combination drug 3330 nmol/L (1:27)
[25] = Compound 1 370 + combination drug 10000 nmol/L (1:27)
[26] = Compound 1 123 + combination drug 556 nmol/L (1:4.5)
[27] = Compound 1 370 + combination drug 1670 nmol/L (1:4.5)
[28] = Compound 1 1110 + combination drug 5000 nmol/L (1:4.5)
[29] = Compound 1 4.57 + combination drug 37.0 nmol/L (1:8.1)
[30] = Compound 1 13.7 + combination drug 123 nmol/L (1:9)
[31] = Compound 1 41.2 + combination drug 370 nmol/L (1:9)
[32] = Compound 1 123 + combination drug 1110 nmol/L (1:9)
[33] = Compound 1 370 + combination drug 3330 nmol/L (1:9)
[34] = Compound 1 1110 + combination drug 10000 nmol/L (1:9)
[35] = Compound 1 37.0 + combination drug 4.12 nmol/L (1:0.1)
[36] = Compound 1 111 + combination drug 12.3 nmol/L (1:0.1)
[37] = Compound 1 333 + combination drug 37.0 nmol/L (1:0.1)
[38] = Compound 1 1.52 nmol/L + Vorinostat 41.2 nmol/L, molar ratio 1:27
[39] = Compound 1 4.57 nmol/L + Vorinostat 123 nmol/L, molar ratio 1:27
[40] = Compound 1 13.7 nmol/L + Vorinostat 370 nmol/L, molar ratio 1:27
[41] = Compound 1 41.2 nmol/L + Vorinostat 1110 nmol/L, molar ratio 1:27
[42] = Compound 1 123 nmol/L + Vorinostat 3330 nmol/L, molar ratio 1:27
[43] = Compound 1 370 nmol/L + Vorinostat 10000 nmol/L, molar ratio 1:27
[44] = Compound 1 1110 nmol/L + Vorinostat 3330 nmol/L, molar ratio 1:3
[45] = Compound 1 3330 nmol/L + Vorinostat 10000 nmol/L, molar ratio 1:3

SMILES: O=c1[nH]cc(F)c(=O)[nH]1 [Compound 5-FU]
- CI (MKN45; [1]): 0.738
- Fa (MKN45; [1]): 0.4610
- CI (MKN45; [2]): 0.399
- Fa (MKN45; [2]): 0.7197
- Description (MKN45; Compound 1 + 5-FU, molar ratio 1:81): Synergy (0.3-0.7)

SMILES: Cc1nc(Nc2ncc(C(=O)Nc3c(C)cccc3Cl)s2)cc(N2CCN(CCO)CC2)n1 [Dasatinib]
- CI (RT4; [3]): 0.804
- Fa (RT4; [3]): 0.1983
- CI (RT4; [4]): 0.356
- Fa (RT4; [4]): 0.3708
- CI (RT4; [5]): 0.147
- Fa (RT4; [5]): 0.5917
- CI (RT4; [6]): 0.207
- Fa (RT4; [6]): 0.6714
- CI (RT4; [7]): 0.096
- Fa (RT4; [7]): 0.8271
- CI (RT4; [8]): 0.192
- Fa (RT4; [8]): 0.8517
- CI (RT4; [9]): 0.229
- Fa (RT4; [9]): 0.8974
- CI (NCI-H358; [5]): 0.342
- Fa (NCI-H358; [5]): 0.2486
- CI (NCI-H358; [6]): 0.208
- Fa (NCI-H358; [6]): 0.4351
- CI (NCI-H358; [7]): 0.119
- Fa (NCI-H358; [7]): 0.7042
- CI (NCI-H358; [8]): 0.227
- Fa (NCI-H358; [8]): 0.7700
- CI (NCI-H358; [9]): 0.633
- Fa (NCI-H358; [9]): 0.7795

SMILES: COc1cc(OC)cc(N(CCNC(C)C)c2ccc3ncc(-c4cnn(C)c4)nc3c2)c1 [Erdafitinib]
- CI (RT4; [10]): 0.602
- Fa (RT4; [10]): 0.3659
- CI (RT4; [11]): 0.124
- Fa (RT4; [11]): 0.6028
- CI (RT4; [12]): 0.129
- Fa (RT4; [12]): 0.6985
- CI (NCI-H358; [13]): 0.768
- Fa (NCI-H358; [13]): 0.3851
- CI (NCI-H358; [14]): 0.681
- Fa (NCI-H358; [14]): 0.7532
- Description (combinatory effect by CI) (NCI-H358; Compound 1:combination drug molar ratio 1:81): Synergy (0.3-0.7)

SMILES: COc1cc([C@@H]2c3cc4c(cc3[C@@H](O[C@@H]3O[C@@H]5CO[C@@H](C)O[C@H]5[C@H](O)[C@H]3O)[C@H]3COC(=O)[C@H]23)OCO4)cc(OC)c1O [Etoposide]
- CI (RT4; [15]): 0.460
- Fa (RT4; [15]): 0.0637
- CI (RT4; [16]): 0.373
- Fa (RT4; [16]): 0.2820
- CI (RT4; [17]): 0.432
- Fa (RT4; [17]): 0.5945
- Description (RT4; Compound 1 + Etoposide, molar ratio 1:27): Synergy (0.3-0.7)

SMILES: COc1cc2ncnc(Nc3ccc(F)c(Cl)c3)c2cc1OCCCN1CCOCC1 [Gefitinib]
- CI (RT4; [18]): 0.205
- CI (RT4; [19]): 0.352
- CI (RT4; [20]): 0.445
- CI (NCI-H358; [18]): 0.311
- CI (NCI-H358; [19]): 0.370
- CI (NCI-H358; [20]): 0.724
- Description (combinatory effect by CI) (NCI-H358; [21]): Synergy (0.3-0.7)

SMILES: Nc1ccn([C@@H]2O[C@H](CO)[C@@H](O)C2(F)F)c(=O)n1 [Gemcitabine]
- CI (MKN45; [22]): 0.698
- Fa (MKN45; [22]): 0.2152
- CI (MKN45; [23]): 0.878
- Fa (MKN45; [23]): 0.4083
- Description (MKN45; Compound 1 + Gemcitabine, molar ratio 1:0.1): Synergy (0.3-0.7)

SMILES: CS(=O)(=O)CCNCc1ccc(-c2ccc3ncnc(Nc4ccc(OCc5cccc(F)c5)c(Cl)c4)c3c2)o1 [Lapatinib]
- CI (MKN45; [24]): 0.965
- Fa (MKN45; [24]): 0.6048
- CI (MKN45; [25]): 0.497
- Fa (MKN45; [25]): 0.9171
- Description (combinatory effect by CI) (MKN45; Compound 1:combination drug molar ratio 1:27): Synergy (0.3-0.7)

SMILES: CCOc1cc2ncc(C#N)c(Nc3ccc(OCc4ccccn4)c(Cl)c3)c2cc1NC(=O)/C=C/CN(C)C [Neratinib]
- CI (MKN45; [26]): 0.658
- Fa (MKN45; [26]): 0.5592
- CI (MKN45; [27]): 0.336
- Fa (MKN45; [27]): 0.8104
- CI (MKN45; [28]): 0.237
- Fa (MKN45; [28]): 0.9240

SMILES: C=CC(=O)Nc1cc(Nc2nccc(-c3cn(C)c4ccccc34)n2)c(OC)cc1N(C)CCN(C)C [Osimertinib]
- CI (RT4; [29]): 0.844
- Fa (RT4; [29]): 0.2395
- CI (RT4; [18]): 0.453
- Fa (RT4; [18]): 0.4891
- CI (RT4; [19]): 0.326
- Fa (RT4; [19]): 0.7067
- CI (RT4; [20]): 0.550
- Fa (RT4; [20]): 0.7777
- Description (combinatory effect by CI) (RT4; [21]): Synergy (0.3-0.7)
- CI (NCI-H358; [18]): 0.333
- Fa (NCI-H358; [18]): 0.2157
- CI (NCI-H358; [19]): 0.436
- Fa (NCI-H358; [19]): 0.4242
- CI (NCI-H358; [20]): 0.844
- Fa (NCI-H358; [20]): 0.5579
- Description (combinatory effect by CI) (NCI-H358; [21]): Synergy (0.3-0.7)

SMILES: Cc1ccc(C(=O)Nc2ccc(CN3CCN(C)CC3)c(C(F)(F)F)c2)cc1C#Cc1cnc2cccnn12 [Ponatinib]
- CI (NCI-H358): 0.794 and 0.463 and 0.639

SMILES: CNC(=O)c1cc(Oc2ccc(NC(=O)Nc3ccc(Cl)c(C(F)(F)F)c3)c(F)c2)ccn1 [Regorafenib]
- CI (RT4; [30]): 0.650
- Fa (RT4; [30]): 0.1849
- CI (RT4; [31]): 0.582
- Fa (RT4; [31]): 0.3071
- CI (RT4; [32]): 0.359
- Fa (RT4; [32]): 0.5417
- CI (RT4; [33]): 0.696
- Fa (RT4; [33]): 0.6157
- CI (RT4; [34]): 0.979
- Fa (RT4; [34]): 0.7401
- Description (combinatory effect by CI) (RT4; Compound 1:combination drug molar ratio 1:9): Synergy (0.3-0.7)

SMILES: CC(=O)Nc1cccc(-n2c(=O)n(C3CC3)c(=O)c3c(Nc4ccc(I)cc4F)n(C)c(=O)c(C)c32)c1 [Trametinib]
- CI (MKN45; [35]): 0.358
- Fa (MKN45; [35]): 0.4047
- CI (MKN45; [36]): 0.389
- Fa (MKN45; [36]): 0.6614
- CI (MKN45; [37]): 0.693
- Fa (MKN45; [37]): 0.7703
- Description (combinatory effect by CI) (MKN45; Compound 1:combination drug molar ratio 1:0.1): Synergy (0.3-0.7)

SMILES: O=C(CCCCCCC(=O)Nc1ccccc1)NO [Vorinostat]
- CI (RT4; [38]): 0.581
- Fa (RT4; [38]): 0.0392
- CI (RT4; [39]): 0.388
- Fa (RT4; [39]): 0.1081
- CI (RT4; [40]): 0.647
- Fa (RT4; [40]): 0.1594
- CI (RT4; [41]): 0.394
- Fa (RT4; [41]): 0.4179
- CI (RT4; [42]): 0.569
- Fa (RT4; [42]): 0.5893
- CI (RT4; [43]): 0.334
- Fa (RT4; [43]): 0.8967
- Description (RT4; Compound 1 + Vorinostat, molar ratio 1:27): Synergy (0.3-0.7)
- CI (NCI-H358; [44]): 0.642
- Fa (NCI-H358; [44]): 0.7678
- CI (NCI-H358; [45]): 0.464
- Fa (NCI-H358; [45]): 0.9628
- Description (NCI-H358; combination effect, Compound 1 + Vorinostat, molar ratio 1:3): Synergy (0.3-0.7)
